According to paper PMC10165928 (Journal of Enzyme Inhibition and Medicinal Chemistry, 2023):
Entries after “also recorded” stand apart in the source; their conditions may differ.

What was measured:
[1] = tested on: colon cancer HCT-116 cells; test: MTT cell growth inhibition assay, HCT-116; format: cell-based, human; settings: for IC50: Homo sapiens, HCT-116, 72 h, read-out: IC50 HCT-116 cells
[2] = target: T1, HDAC10 (Homo sapiens, UniProt Q969S8); test: In vitro HDAC10 inhibition assay; format: biochemical
T1 sequence (Q969S8 1-669): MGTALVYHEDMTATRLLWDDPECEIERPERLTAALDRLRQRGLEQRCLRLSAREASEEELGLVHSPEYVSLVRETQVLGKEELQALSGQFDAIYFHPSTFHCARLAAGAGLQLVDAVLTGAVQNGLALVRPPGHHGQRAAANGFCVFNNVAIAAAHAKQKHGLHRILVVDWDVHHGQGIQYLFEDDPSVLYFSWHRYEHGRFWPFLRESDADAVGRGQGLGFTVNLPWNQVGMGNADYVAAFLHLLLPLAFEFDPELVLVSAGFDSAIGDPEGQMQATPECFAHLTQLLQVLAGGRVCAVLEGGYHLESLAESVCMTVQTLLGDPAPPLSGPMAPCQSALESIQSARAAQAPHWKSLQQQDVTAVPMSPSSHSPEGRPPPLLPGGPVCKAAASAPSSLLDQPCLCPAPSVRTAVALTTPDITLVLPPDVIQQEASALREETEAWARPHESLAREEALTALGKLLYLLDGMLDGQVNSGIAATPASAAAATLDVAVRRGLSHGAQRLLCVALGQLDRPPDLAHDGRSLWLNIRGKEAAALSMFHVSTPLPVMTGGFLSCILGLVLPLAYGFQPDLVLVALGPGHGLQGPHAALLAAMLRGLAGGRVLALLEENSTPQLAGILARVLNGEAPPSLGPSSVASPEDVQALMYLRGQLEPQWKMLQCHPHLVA

[3] = tested on: normal human liver L-O2 cells; test: In vitro toxicity test; format: cell-based; settings: for IC50: Homo sapiens, L02, 72 h, read-out: IC50 L-O2 cells; for SI (selectivity index): ratio of IC50 of L-O2 cells divided by that of HL-60 cells
[4] = tested on: promyelocytic leukaemia HL-60 cells; test: MTT cell growth inhibition assay, HL-60; format: cell-based; settings: Homo sapiens, HL-60, 72 h, read-out: IC50 HL-60 cells
[5] = target: HDAC1 (Homo sapiens, UniProt Q13547); test: In vitro HDAC1 inhibition assay; format: biochemical; settings: for IC50 HDAC1: mean ± SEM of three independent assays, NA: IC50 not apparent even with the compound tested >10 μM; for SI (selectivity index): ratio of IC50 of HDAC6 divided by that of HDAC1
Sequence of HDAC1 (Q13547 whole entry): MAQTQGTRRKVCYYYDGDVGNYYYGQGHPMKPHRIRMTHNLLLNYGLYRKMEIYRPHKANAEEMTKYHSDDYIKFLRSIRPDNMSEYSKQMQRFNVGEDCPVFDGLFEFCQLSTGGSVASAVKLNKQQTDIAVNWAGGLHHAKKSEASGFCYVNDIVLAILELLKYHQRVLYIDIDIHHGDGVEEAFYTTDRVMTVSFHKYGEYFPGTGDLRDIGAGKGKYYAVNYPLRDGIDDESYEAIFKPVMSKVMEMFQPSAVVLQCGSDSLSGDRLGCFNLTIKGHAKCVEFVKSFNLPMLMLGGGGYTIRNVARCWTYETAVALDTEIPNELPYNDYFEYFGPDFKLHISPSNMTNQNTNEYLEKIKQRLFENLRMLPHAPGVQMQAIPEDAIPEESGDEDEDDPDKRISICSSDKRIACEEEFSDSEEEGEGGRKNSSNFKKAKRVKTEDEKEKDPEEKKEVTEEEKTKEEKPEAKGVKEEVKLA

[6] = tested on: HL-60 cells; test: Cell cycle analysis by flow cytometry; format: cell-based, human; settings: HL-60, 48 h
[7] = target: T2, HDAC8 (Homo sapiens, UniProt Q9BY41); test: In vitro HDAC8 inhibition assay; format: biochemical; settings: for IC50 HDAC8: mean ± SEM of three independent assays
T2 sequence (Q9BY41 1-377): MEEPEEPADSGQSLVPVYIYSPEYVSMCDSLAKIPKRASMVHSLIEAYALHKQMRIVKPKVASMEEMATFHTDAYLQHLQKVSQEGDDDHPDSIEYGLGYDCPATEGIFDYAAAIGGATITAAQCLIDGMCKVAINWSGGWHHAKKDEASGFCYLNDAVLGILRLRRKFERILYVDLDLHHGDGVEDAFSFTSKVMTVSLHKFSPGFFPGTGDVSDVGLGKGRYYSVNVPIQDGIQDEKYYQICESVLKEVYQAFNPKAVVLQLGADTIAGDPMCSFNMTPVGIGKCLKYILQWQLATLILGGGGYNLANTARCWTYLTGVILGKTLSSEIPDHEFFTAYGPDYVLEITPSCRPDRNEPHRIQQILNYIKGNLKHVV

[8] = target: T3, HDAC6 (Homo sapiens, UniProt Q9UBN7); test: In vitro HDAC6 inhibition assay; format: biochemical; settings: mean ± SEM of three independent assays; NA: IC50 not apparent even with the compound tested >10 μM
T3 sequence (Q9UBN7 1-1215): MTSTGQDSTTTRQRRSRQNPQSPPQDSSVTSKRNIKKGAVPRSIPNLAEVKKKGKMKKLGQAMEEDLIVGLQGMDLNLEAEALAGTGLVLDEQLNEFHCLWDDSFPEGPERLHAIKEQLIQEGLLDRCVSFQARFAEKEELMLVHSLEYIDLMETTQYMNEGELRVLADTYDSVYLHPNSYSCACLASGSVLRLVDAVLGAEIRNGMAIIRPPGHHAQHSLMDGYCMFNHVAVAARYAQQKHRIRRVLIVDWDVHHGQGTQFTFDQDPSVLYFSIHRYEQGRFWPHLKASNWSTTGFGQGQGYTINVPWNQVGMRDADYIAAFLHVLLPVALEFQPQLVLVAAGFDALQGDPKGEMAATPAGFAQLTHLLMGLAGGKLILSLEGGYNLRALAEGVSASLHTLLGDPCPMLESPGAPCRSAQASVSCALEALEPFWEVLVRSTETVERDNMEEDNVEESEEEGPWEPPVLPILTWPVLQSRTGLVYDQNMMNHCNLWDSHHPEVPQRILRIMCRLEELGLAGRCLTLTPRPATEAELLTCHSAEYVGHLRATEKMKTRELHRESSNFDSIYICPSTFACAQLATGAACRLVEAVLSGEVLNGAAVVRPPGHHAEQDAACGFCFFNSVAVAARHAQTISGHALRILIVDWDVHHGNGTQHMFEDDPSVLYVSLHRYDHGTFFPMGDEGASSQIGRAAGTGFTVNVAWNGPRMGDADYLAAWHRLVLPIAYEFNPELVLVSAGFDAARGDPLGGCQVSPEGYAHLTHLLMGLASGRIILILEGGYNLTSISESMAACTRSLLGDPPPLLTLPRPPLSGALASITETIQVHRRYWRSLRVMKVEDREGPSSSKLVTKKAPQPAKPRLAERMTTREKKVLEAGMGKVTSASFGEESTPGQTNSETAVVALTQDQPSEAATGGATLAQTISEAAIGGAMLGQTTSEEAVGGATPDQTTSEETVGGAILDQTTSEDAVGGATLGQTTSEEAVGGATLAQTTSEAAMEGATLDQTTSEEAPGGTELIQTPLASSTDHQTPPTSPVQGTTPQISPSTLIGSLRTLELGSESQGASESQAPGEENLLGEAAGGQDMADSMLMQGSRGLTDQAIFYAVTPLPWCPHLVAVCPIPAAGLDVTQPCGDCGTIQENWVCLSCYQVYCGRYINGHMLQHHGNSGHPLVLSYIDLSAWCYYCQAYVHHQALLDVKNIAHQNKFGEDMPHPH

[9] = tested on: HL-60 cells; test: Cell apoptosis detection; format: cell-based, human; settings: HL-60, 48 h
[10] = target: HDAC3 (Homo sapiens, UniProt O15379); test: In vitro HDAC3 inhibition assay; format: biochemical
Sequence of HDAC3 (O15379 whole entry): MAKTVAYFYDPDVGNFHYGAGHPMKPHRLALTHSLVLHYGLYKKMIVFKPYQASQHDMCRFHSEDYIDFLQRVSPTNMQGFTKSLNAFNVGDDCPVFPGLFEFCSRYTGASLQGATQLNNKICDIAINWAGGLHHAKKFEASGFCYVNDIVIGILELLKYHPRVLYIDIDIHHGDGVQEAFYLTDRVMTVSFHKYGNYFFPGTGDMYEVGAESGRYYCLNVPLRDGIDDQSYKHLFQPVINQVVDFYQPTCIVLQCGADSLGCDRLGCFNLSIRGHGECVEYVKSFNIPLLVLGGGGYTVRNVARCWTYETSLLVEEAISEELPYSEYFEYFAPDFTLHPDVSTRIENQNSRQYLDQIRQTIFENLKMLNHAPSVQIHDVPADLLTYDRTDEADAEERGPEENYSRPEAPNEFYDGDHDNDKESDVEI
Sequence of HDAC3 (Q9Y618 395-489 partner limits assumed): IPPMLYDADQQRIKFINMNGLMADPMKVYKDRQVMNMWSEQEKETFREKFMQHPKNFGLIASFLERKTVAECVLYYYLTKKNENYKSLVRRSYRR

[11] = tested on: HL-60 cells; test: Western blot analysis in HL-60 cells; format: cell-based, human; settings: 48 h; for histone H3 acetylation (Ac-H3) level: different concentrations; for expression of Rb / expression of p-Rb / expression of γ-H2AX: increasing concentration

In the case of `Nc1cc(F)ccc1NC(=O)c1ccc(CNC(=O)/C=C/c2cccnc2)cc1` [Chidamide, chidamide, reference compound], the IC50 [1] is reported as 3860 ± 1080 nM, the IC50 [2] is reported as 259 ± 23 nM and the IC50 [3] is reported as 8870 ± 930 nM. It also gave an IC50 [4] of 860 ± 70 nM.
`Nc1cc(F)ccc1NC(=O)c1ccc(Cl)c2c(=O)c3cccc([N+](=O)[O-])c3[nH]c12` [Compound 8a, N-(2-amino-4-fluorophenyl)-1-chloro-5-nitro-9-oxo-9,10-dihydroacridine-4-carboxamide] was tested, and the “IC50 HDAC1” value [5] was “completely lost”.
`COc1cccc2c(=O)c3c(Cl)ccc(C(=O)NCCCC(=O)Nc4ccccc4N)c3[nH]c12` [Compound 11a, N-(4-((2-aminophenyl)amino)-4-oxobutyl)-1-chloro-5-methoxy-9-oxo-9,10-dihydroacridine-4-carboxamide] was tested, and the “IC50 HCT-116 cells” value ([1]; MTT, 72 h, mean ± SEM of three assays, NA: IC50 not apparent even with the compound tested >50 μM) was “no anti-proliferation activity”, the IC50 [4] was 13200 ± 2430 nM and the IC50 [5] was 4090 ± 273 nM. For the same molecule, the “SI (selectivity index)” value [5] was >2.4.
For `COc1cccc2c(=O)c3c(Cl)ccc(C(=O)NCCCCCC(=O)Nc4ccccc4N)c3[nH]c12` [Compound 11b, N-(6-((2-aminophenyl)amino)-6-oxohexyl)-1-chloro-5-methoxy-9-oxo-9,10-dihydroacridine-4-carboxamide], the IC50 [1] was 3170 ± 260 nM, the “proportion of cells in S phase” value ([6]; 0.1 μM) was 49.1% and the “proportion of cells in S phase” value ([6]; 0.5 μM) was 50.4%. For the same molecule, the “proportion of cells in S phase” value ([6]; 2.5 μM) was 59.2%, the IC50 [7] was > 5000 nM and the “IC50 HDAC8” value [7] was “no inhibitory effect; also recorded: no inhibitory activity”. For the same molecule, the IC50 [2] was 387 ± 64 nM, the “IC50 HDAC6” value [8] was “no inhibitory effect; also recorded: no inhibitory activity” and the IC50 [3] was 5000 ± 330 nM. For the same molecule, the “SI (selectivity index)” value [3] was 8.9, the IC50 [4] was 560 ± 30 nM and the “proportion of apoptotic cells” value ([9]; 2.5 μM) was 85.8%. For the same molecule, the IC50 [10] was 418 ± 40 nM, the “histone H3 acetylation (Ac-H3) level” value [11] was “significantly induced histone H3 acetylation” and the “expression of Rb” value [11] was “significantly down-regulated”. The “expression of p-Rb” value [11] was “significantly down-regulated”, the “expression of γ-H2AX” value [11] was “up-regulated” and the IC50 [5] was 227 ± 9 nM. For the same molecule, the “SI (selectivity index)” value [5] was >44.1.
With `COc1cccc2c(=O)c3c(Cl)ccc(C(=O)NCCCCCCC(=O)Nc4ccccc4N)c3[nH]c12` [Compound 11c, N-(7-((2-aminophenyl)amino)-7-oxoheptyl)-1-chloro-5-methoxy-9-oxo-9,10-dihydroacridine-4-carboxamide] the IC50 [1] was 4210 ± 570 nM, the “proportion of cells in S phase” value ([6]; 0.2 μM) was 48.4% and the “proportion of cells in S phase” value ([6]; 1 μM) was 52.7%. The “proportion of cells in S phase” value ([6]; 5 μM) was 58.4%, the IC50 [7] was > 5000 nM and the “IC50 HDAC8” value [7] was “no inhibitory effect; also recorded: no inhibitory activity”. For the same molecule, the IC50 [2] was 177 ± 8 nM, the “IC50 HDAC6” value [8] was “no inhibitory effect; also recorded: no inhibitory activity” and the IC50 [3] was 7190 ± 1520 nM. The “SI (selectivity index)” value [3] was 5.8, the IC50 [4] was 1240 ± 80 nM and the “proportion of apoptotic cells” value ([9]; 5 μM) was 70.3%. The IC50 [10] was 225 ± 9 nM, the “histone H3 acetylation (Ac-H3) level” value [11] was “significantly induced histone H3 acetylation” and the “expression of Rb” value [11] was “significantly down-regulated”. For the same molecule, the “expression of p-Rb” value [11] was “significantly down-regulated”, the “expression of γ-H2AX” value [11] was “up-regulated” and the IC50 [5] was 87 ± 3 nM. The “SI (selectivity index)” value [5] was >114.9.
With `COc1cccc2c(=O)c3c(Cl)ccc(C(=O)NCCCCCCC(=O)Nc4ccc(F)cc4N)c3[nH]c12` [Compound 11d, N-(7-((2-amino-4-fluorophenyl)amino)-7-oxoheptyl)-1-chloro-5-methoxy-9-oxo-9,10-dihydroacridine-4-carboxamide] the IC50 [1] was 7510 ± 740 nM, the IC50 [4] was 10200 ± 3200 nM and the IC50 [5] was 247 ± 38 nM. For the same molecule, the “SI (selectivity index)” value [5] was >40.5.
In the case of `Cc1c(C(=O)Nc2ccccc2N)cc(Br)c2c(=O)c3ccccc3[nH]c12` [Compound 16a, N-(2-aminophenyl)-1-bromo-4-methyl-9-oxo-9,10-dihydroacridine-3-carboxamide], the “IC50 HDAC1” value [5] is reported as “completely lost”.
With `Cc1c(C(=O)Nc2ccc(Br)cc2N)cc(Br)c2c(=O)c3ccccc3[nH]c12` [Compound 16b, N-(2-amino-4-bromophenyl)-1-bromo-4-methyl-9-oxo-9,10-dihydroacridine-3-carboxamide] the “IC50 HDAC1” value [5] was “completely lost”.
